Measurements published in US20220305401A1, “EUTECTIC EXTRACTION OF SOLIDS” (Givaudan SA, priority 2019, published 2022).

How the values were obtained:
[1] = type: physicochemical
Text: To further improve the washing procedure that leads to a high carnosic acid content in the final extract and, concomitantly, a strong antioxidant activity, here we studied the effect of the addition of sodium chloride on the CA hydrosolubility.

[2] = Saturation level of urea, betaine and urea:betaine mixtures in water; type: physicochemical
Text: The concentrations of pure urea solution in water or PBS ranged from 0.025 to 10.1 M, the latter value corresponding to the saturation level of urea. Finally, the concentrations of pure betaine in water or PBS ranged from 0.025 to 5.4 M, this latter corresponding to the saturation level of betaine. In this Example, anhydrous urea:betaine (U:B) mixtures at different molar ratios were first prepared, then solubilized in distilled water at different concentrations ranging from 1.5 g/L to the saturation level which was 607, 813, 985, 957, 795, 741, and 633 g/L for the U:B ratios 1:0, 3:1, 2:1, 1:1, 1:2, 1:3, and 0:1, respectively.

[3] = Solubilization of disperse red 13 by urea:betaine aqueous solutions (absorbance at 525 nm); type: physicochemical; conditions: distilled water, room temperature
Method: The desired amounts of betaine and/or urea powders were dissolved in distilled water or phosphate buffer solution (PBS, 67 mM) at pH 7.0 to form a 100 mL solution.
The concentration of urea in the urea:betaine mixtures in water or PBS ranged from 0.025 to 8.3 M.
The solutions of urea and/or betaine in PBS were adjusted to provide a pH of 7.0 using concentrated HCl. The volume of added HCl was taken into account when calculating the final molar concentration of betaine and/or urea.
10 mL of the osmolyte solution was added to a vial containing 5 mg red disperse 13 in excess ([…], Sigma), then magnetically stirred (500 rpm) for 16 hours and filtrated (0.45 μm). The concentration of red disperse 13 in the filtrate is measured at 525 nm (Shimadzu UV-1800, Japan). […]
These liquid mixtures were mixed with an excess of disperse red 13 used as a hydrophobic probe to screen the solubilization properties of the solvents. It can be observed from FIG. 1 that the disperse red 13 absorbance increases exponentially 525 nm approx.) with increasing the deep eutectic concentration in water. […]

SMILES	water solubility [1]	saturation level ([2]; distilled water) [g/L]	saturation level ([2]; water or PBS) [M]	hydrotropic behavior for disperse red 13 [3]
CC(C)c1cc2c(c(O)c1O)[C@@]1(C(=O)O)CCCC(C)(C)[C@@H]1CC2 [CA, carnosic acid]	strongly reduced			
C[N+](C)(C)CC(=O)O [betaine]		633	5.4	too modestly to be qualified as such
NC(N)=O [urea, Urea]		607	10.1	displays a hydrotropic behavior
